Test results as given in paper PMC10178204, “Peptaibol Analogs Show Potent Antibacterial Activity against Multidrug Resistant Opportunistic Pathogens” (International Journal of Molecular Sciences, 2023).
Values after ≈ are worked out from the molar mass of the structure shown. Values joined by “and” are separate entries in the source; they are usually repeats but may differ in a detail not shown here. Equal entries are not always repeated. Non-standard residues stand in square brackets, D forms with d. Residues, ends and D or L forms follow the SMILES beside them. *: point of attachment. Leu(ol) = CC(C)C[C@H](N)CO; Octanoyl = CCCCCCCC(=O)*; Aib = CC(C)(N)C(=O)O

Legend:
[1] = system: A. baumannii SI-648 (OXA-23, OXA-51-like); conditions: MHB, 5 × 10^5 CFU/mL, 18 h, 35 °C, triplicate
Summary of the method: (§1)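 Peptides came from DMSO stocks of 25 mg/mL. Strains were clinical MDR isolates producing metallo-β-lactamase (P. aeruginosa) or class D carbapenemase (A. baumannii).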

[2] = system: A. baumannii SI-12 (OXA-23); conditions: MHB, 5 × 10^5 CFU/mL, 18 h, 35 °C, triplicate
Summary of the method: as §1

[3] = system: P. aeruginosa VA-182/00 (VIM-2); conditions: MHB, 5 × 10^5 CFU/mL, 18 h, 35 °C, triplicate
Summary of the method: as §1

[4] = system: P. aeruginosa 506/99 (VIM-2); conditions: MHB, 5 × 10^5 CFU/mL, 18 h, 35 °C, triplicate
Summary of the method: as §1

[5] = system: P. aeruginosa 101/1477 (IMP-1); conditions: MHB, 5 × 10^5 CFU/mL, 18 h, 35 °C, triplicate
Summary of the method: as §1

[6] = system: S. aureus ATCC 43300 (MRSA); conditions: MHB, 5 × 10^5 CFU/mL, 18 h, 35 °C, triplicate
[7] = system: A. baumannii SI-310 (OXA-24); conditions: colistin-resistant isolate; MHB, 5 × 10^5 CFU/mL, 18 h, 35 °C, triplicate
Summary of the method: as §1

[8] = system: P. aeruginosa VR-143/97 (VIM-1); conditions: MHB, 5 × 10^5 CFU/mL, 18 h, 35 °C, triplicate
Summary of the method: as §1

[9] = system: Klebsiella pneumoniae ATCC 13833; conditions: MHB, 5 × 10^5 CFU/mL, 18 h, 35 °C, triplicate
Summary of the method: (§2)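 Broth microdilution in Mueller–Hinton broth, run in triplicate, inoculum 5 × 10^5 CFU/mL per CLSI M07-A10; MIC and MBC both determined. Peptides dissolved in DMSO at 25 mg/mL as stock.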

[10] = system: Enterococcus faecalis ATCC 29212; conditions: MHB, 5 × 10^5 CFU/mL, 18 h, 35 °C, triplicate
Summary of the method: as §2

[11] = system: Staphylococcus aureus ATCC 25923; conditions: MHB, 5 × 10^5 CFU/mL, 18 h, 35 °C, triplicate
Summary of the method: as §2

[12] = system: Pseudomonas aeruginosa ATCC 27853; conditions: MHB, 5 × 10^5 CFU/mL, 18 h, 35 °C, triplicate
Summary of the method: as §2

Escherichia coli CCUGT = conditions: MHB, 5 × 10^5 CFU/mL, 18 h, 35 °C, triplicate
Summary of the method: as §2

[13] = system: Streptococcus pyogenes ATCC 12344; conditions: MHB, 5 × 10^5 CFU/mL, 18 h, 35 °C, triplicate
Summary of the method: as §2

[14] = system: reference Gram-positive and Gram-negative strains; conditions: for lowest MIC: lowest value over the eight reference strains
Summary of the method: as §2

[15] = system: Bacillus subtilis ATCC 6633; conditions: MHB, 5 × 10^5 CFU/mL, 18 h, 35 °C, triplicate
Summary of the method: as §2

[16] = system: Acinetobacter baumannii ATCC 17978; conditions: for MBC Aba / MIC Aba: MHB, 5 × 10^5 CFU/mL, 18 h, 35 °C, triplicate; for MIC against A. baumannii, in molar units: corresponding to 2 and 8 μg/mL
Summary of the method: as §2

[17] = system: blood agar plate (Columbia CNA Agar); assay: Hemolysis on blood agar plate; conditions: 35 ± 2 °C, 24 h
Procedure: Hemolysis zones were visually determined and measured. […] For two additional peptides (6 and 15), only a small hemolysis zone (diameter 4–5 mm) was visible, as compared to that of the positive control (Triton X-100, 13 mm).
Briefly, 2 μL of each peptide solution in DMSO (25 mg/mL), corresponding to 50 μg, was spotted on the surface of a blood agar plate (Columbia CNA Agar, Becton Dickinson Italia S.p.A., Florence, Italy). The plate was then incubated at 35 ± 2 °C for 24 h and visually inspected for the presence of hemolysis zones (see Figure S13, Supplementary Material). The experiment was performed in triplicate. Table 2 reports the average value of the diameter of hemolysis zones measured in each individual experiment. Triton X-100 was used as a positive control (diameter of the hemolysis zone: 13 mm), while DMSO was used as a negative control.
Figure S13. Implementation of the hemolysis test as described in Bechlars et al.. After spotting
2 µL (50 µg) of each compound at a random location on the blood agar plate and incubation at 35 ±
2 °C for 24 h, the plates were manually inspected for the presence of hemolysis zones. Triton X-100
and DMSO were used as the positive and negative controls, respectively. Results were interpreted
(1 picture or pasted object on this page, not shown here)

Row | Compound | MBC A. baumannii SI-648 (OXA-23, OXA-51-like) [1] [µg/mL] | MIC A. baumannii SI-648 (OXA-23, OXA-51-like) [1] [µg/mL] | MBC A. baumannii SI-12 (OXA-23) [2] [µg/mL] | MIC A. baumannii SI-12 (OXA-23) [2] | MBC P. aeruginosa VA-182/00 (VIM-2) [3] [µg/mL] | MIC P. aeruginosa VA-182/00 (VIM-2) [3] [µg/mL] | MBC P. aeruginosa 506/99 (VIM-2) [4] [µg/mL] | MIC P. aeruginosa 506/99 (VIM-2) [4] [µg/mL] | MBC P. aeruginosa 101/1477 (IMP-1) [5] [µg/mL] | MIC P. aeruginosa 101/1477 (IMP-1) [5] [µg/mL] | MBC S. aureus ATCC 43300 (MRSA) [6] [µg/mL] | MIC S. aureus ATCC 43300 (MRSA) [6] [µg/mL] | MBC A. baumannii SI-310 (OXA-24) [7] [µg/mL] | MIC A. baumannii SI-310 (OXA-24) [7] | MBC P. aeruginosa VR-143/97 (VIM-1) [8] [µg/mL] | MIC P. aeruginosa VR-143/97 (VIM-1) [8] [µg/mL] | MIC Kpn [9] [µg/mL] | MBC Efa [10] [µg/mL] | MIC Efa [10] [µg/mL] | MIC Sau [11] [µg/mL] | also measured
1 | CCCCCCCC(=O)NC(C)(C)C(=O)N[C@@H](CCCCN)C(=O)N[C@@H](CC(C)C)C(=O)NC(C)(C)C(=O)N[C@@H](CCCCN)C(=O)N[C@@H](CCCCN)C(=O)N[C@@H](CC(C)C)C(=O)NC(C)(C)C(=O)N[C@@H](CCCCN)C(=O)N[C@H](C(=O)N[C@H](CO)CC(C)C)[C@@H](C)CC [Peptide 7, 1-Oct-Aib-Lys-Leu-Aib-Lys-Lys-Leu-Aib-Lys-Ile-Lol] (Octanoyl-[Aib]KL[Aib]KKL[Aib]KI[Leu(ol)]) | 4 (≈ 2.96 µM) | 2 (≈ 1.48 µM) | 4 (≈ 2.96 µM) | 2 µg/mL (≈ 1.48 µM) | 8 (≈ 5.92 µM) | 8 (≈ 5.92 µM) | 8 (≈ 5.92 µM) | 8 (≈ 5.92 µM) | 8 (≈ 5.92 µM) | 8 (≈ 5.92 µM) | 8 (≈ 5.92 µM) | 4 (≈ 2.96 µM) | 4 (≈ 2.96 µM) | 4 μg/mL and 4/4 μg/mL | 8 (≈ 5.92 µM) | 8 (≈ 5.92 µM) | 16 (≈ 11.8 µM) | 8 (≈ 5.92 µM) | 4 (≈ 2.96 µM) | 16 (≈ 11.8 µM) | MBC Kpn [9]: 16 µg/mL (≈ 11.8 µM); MBC Sau [11]: 32 µg/mL (≈ 23.7 µM); MBC Pae [12]: > 16 µg/mL; MIC Pae [12]: 8 µg/mL (≈ 5.92 µM); MBC Eco (Escherichia coli CCUGT): 16 µg/mL (≈ 11.8 µM); MIC Eco (Escherichia coli CCUGT): 16 µg/mL (≈ 11.8 µM); MBC Spy [13]: 8 µg/mL (≈ 5.92 µM); MIC Spy [13]: 2 µg/mL (≈ 1.48 µM); lowest MIC [14]: 2 µg/mL; MIC range, all tested bacterial strains ([14]; reference panel): 2 to 16 µg/mL; MBC Bsu [15]: 16 µg/mL (≈ 11.8 µM); MIC Bsu [15]: 2 µg/mL (≈ 1.48 µM); MBC Aba [16]: 16 µg/mL (≈ 11.8 µM); MIC Aba [16]: 2 µg/mL (≈ 1.48 µM); MIC against A. baumannii, in molar units [16]: 1.8 to 7.2 µM; Hemolytic activity (in words) ([17]; 50 μg spotted on blood agar): non-hemolytic
2 | CCCCCCCC(=O)NC(C)(C)C(=O)N[C@@H](CCCCN)C(=O)N[C@@H](CC(C)C)C(=O)NC(C)(C)C(=O)N[C@@H](CCCCN)C(=O)N[C@@H](CCCCN)C(=O)N[C@@H](CC(C)C)C(=O)NC(C)(C)C(=O)NCC(=O)N[C@H](C(=O)N[C@@H](CC(C)C)C(N)=O)[C@@H](C)CC [Peptide 11, 1-Oct-Aib-Lys-Leu-Aib-Lys-Lys-Leu-Aib-Gly-Ile-Leu-NH2] (Octanoyl-[Aib]KL[Aib]KKL[Aib]GIL-NH2) | 4 (≈ 3.09 µM) | 2 (≈ 1.55 µM) | 32 (≈ 24.8 µM) | 32 μg/mL and 32/32 μg/mL | 32 (≈ 24.8 µM) | 8 (≈ 6.19 µM) | 16 (≈ 12.4 µM) | 8 (≈ 6.19 µM) | 8 (≈ 6.19 µM) | 8 (≈ 6.19 µM) | 2 (≈ 1.55 µM) | 2 (≈ 1.55 µM) | 4 (≈ 3.09 µM) | 2 µg/mL (≈ 1.55 µM) | 8 (≈ 6.19 µM) | 8 (≈ 6.19 µM) | > 128 | 32 (≈ 24.8 µM) | 4 (≈ 3.09 µM) | 16 (≈ 12.4 µM) | MBC Eco (Escherichia coli CCUGT): 128 µg/mL (≈ 99 µM); MIC Eco (Escherichia coli CCUGT): 16 µg/mL (≈ 12.4 µM); MBC Spy [13]: 16 µg/mL (≈ 12.4 µM); MIC Spy [13]: 4 µg/mL (≈ 3.09 µM); lowest MIC [14]: 2 µg/mL; MBC Bsu [15]: 16 µg/mL (≈ 12.4 µM); MIC Bsu [15]: 2 µg/mL (≈ 1.55 µM); MBC Aba [16]: 2 µg/mL (≈ 1.55 µM); MIC Aba [16]: 2 µg/mL (≈ 1.55 µM); MIC against A. baumannii, in molar units [16]: 1.8 to 7.2 µM; Hemolysis (class) ([17]; 50 μg peptide (2 μL of 25 mg/mL in DMSO) spotted on blood agar, visual, triplicate): -
